pIC50: −log10 of the molar value.
Experiments:
Src (p60^c-src) = target: T1, Src (p60^c-src) (Homo sapiens, UniProt P12931); assay: SRC-Inhibitor-Assay (time-resolved fluorescence kinase assay), Src; assay type: biochemical; conditions: ATP 5 μM, peptide 10 μM, enzyme 2.5 U/ml, pH 7.3
T1 construct: purchased UBI, Upstate Biotech, Inc
Source text: (§1) The activity of the compounds according to this invention as inhibitors for the src-family tyrosine kinases was shown by using the following assay.
(§2) ATP, Tween™ 20, 4-(2-hydroxyethyl)-1-piperazineethanesulfonic acid (HEPES) were purchased from Roche Molecular Biochemicals, MgCl2 and MnCl2 were purchased from Merck Eurolab, Tris(2-carboxyethyl)phosphine hydrochloride (TCEP) was purchased from Pierce, 384 Well low volume fluorescence plates was purchased from Falcon.
(§3) At first the enzyme is pre-incubated for 15 min. at 15° C. in aqueous solution with corresponding amounts of inhibitors according to this invention. Then the phosphorylation reaction is started by adding a reaction mixture, containing ATP, Peptide and PT66, and subsequent shaking. The proceeding of this reaction is immediately monitored using time resolved fluorescence spectroscopy in a suitable well plate reader.
(§4) The IC50-values can be obtained from the reaction rates by using a non-linear curve fit (XLfit software (ID Business Solution Ltd., Guilford, Surrey, UK))

Lck (p56^lck) = target: T2, Lck (p56^lck) (Homo sapiens, UniProt P06239); assay: SRC-Inhibitor-Assay (time-resolved fluorescence kinase assay), Lck; assay type: biochemical; conditions: ATP 5 μM, peptide 10 μM, enzyme 2.5 U/ml, pH 7.3
T2 construct: purchased UBI, Upstate Biotech, Inc
Source text: as §1, §2, §3, §4

T1 sequence (P12931 whole entry): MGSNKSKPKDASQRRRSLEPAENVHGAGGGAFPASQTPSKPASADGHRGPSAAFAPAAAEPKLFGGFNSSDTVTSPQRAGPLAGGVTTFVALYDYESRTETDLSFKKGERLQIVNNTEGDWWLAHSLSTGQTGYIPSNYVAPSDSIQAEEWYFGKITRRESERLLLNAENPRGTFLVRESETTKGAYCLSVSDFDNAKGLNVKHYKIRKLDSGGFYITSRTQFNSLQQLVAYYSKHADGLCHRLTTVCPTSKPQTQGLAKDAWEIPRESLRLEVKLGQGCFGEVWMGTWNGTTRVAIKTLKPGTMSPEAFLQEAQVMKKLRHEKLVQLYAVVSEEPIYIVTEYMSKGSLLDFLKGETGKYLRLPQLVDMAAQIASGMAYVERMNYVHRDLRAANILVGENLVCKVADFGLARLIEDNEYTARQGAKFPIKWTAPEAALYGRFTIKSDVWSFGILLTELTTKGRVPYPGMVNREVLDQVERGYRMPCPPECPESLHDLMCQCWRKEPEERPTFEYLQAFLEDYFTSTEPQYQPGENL
T2 sequence (P06239 whole entry): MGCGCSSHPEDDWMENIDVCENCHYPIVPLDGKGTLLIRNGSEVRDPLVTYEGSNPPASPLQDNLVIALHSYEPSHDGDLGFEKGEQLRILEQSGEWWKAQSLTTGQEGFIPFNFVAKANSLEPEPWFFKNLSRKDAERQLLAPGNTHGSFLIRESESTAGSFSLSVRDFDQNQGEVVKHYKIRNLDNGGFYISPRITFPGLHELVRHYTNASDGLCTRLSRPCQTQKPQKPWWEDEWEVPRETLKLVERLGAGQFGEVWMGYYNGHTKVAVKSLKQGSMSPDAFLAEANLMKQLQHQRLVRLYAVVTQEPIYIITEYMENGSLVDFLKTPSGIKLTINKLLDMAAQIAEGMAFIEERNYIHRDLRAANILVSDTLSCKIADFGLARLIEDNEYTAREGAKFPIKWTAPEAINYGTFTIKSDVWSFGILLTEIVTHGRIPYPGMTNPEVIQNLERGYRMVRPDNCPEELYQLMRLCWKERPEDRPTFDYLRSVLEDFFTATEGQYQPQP

Row | SMILES | melting point | pIC50 (Src (p60^c-src)) | pIC50 (Lck (p56^lck))
1 | CC(C)OC(=O)Nc1cnc2[nH]c(-c3ccc(N)cc3)nc2c1 [Example 5-2, [2-(4-Amino-phenyl)-3H-imidazo[4,5-b]pyridin-6-yl]-carbamic acid isopropyl ester] | – | 6.30 to 8.00 | 5.05 to 7.00
2 | CC(C)OC(=O)Nc1cnc2[nH]c(-c3ccc(N4CCOCC4)nc3)nc2c1 [Example 3-7, [2-(6-Morpholin-4-yl-pyridin-3-yl)-3H-imidazo[4,5-b]pyridin-6-yl]-carbamic acid isopropyl ester] | – | 6.30 to 8.00 | 5.05 to 7.00
3 | C=CC(C)OC(=O)Nc1cnc2[nH]c(-c3ccccc3)nc2c1 (centres unmarked) [Example 1-1, (2-Phenyl-3H-imidazo[4,5-b]pyridin-6-yl)-carbamic acid 1-methyl-allyl ester] | – | 6.30 to 8.00 | 5.05 to 7.00
4 | COCCOc1ccc(-c2cc3cc(NC(=O)OC(C)C)cnc3[nH]2)cc1 [Example 9-17, {2-[4-(2-Methoxy-ethoxy)-phenyl]-1H-pyrrolo[2,3-b]pyridin-5-yl}-carbamic acid isopropyl ester] | – | 6.30 to 8.00 | 5.05 to 7.00
5 | CC(C)OC(=O)Nc1cnc2[nH]c(-c3ccc(N4CCN(C)CC4)cc3)nc2c1 [Example 2-8, {2-[4-(4-Methyl-piperazin-1-yl)-phenyl]-3H-imidazo[4,5-b]pyridin-6-yl}-carbamic acid isopropyl ester] | – | 6.30 to 8.00 | 5.05 to 7.00
6 | CC(C)OC(=O)Nc1cnc2[nH]c(-c3cccc(NS(C)(=O)=O)c3)nc2c1 [Example 7-1, [2-(3-Methanesulfonylamino-phenyl)-3H-imidazo[4,5-b]pyridin-6-yl]-carbamic acid isopropyl ester] | – | 6.30 to 8.00 | 5.05 to 7.00
7 | CC(C)OC(=O)Nc1cnc2[nH]c(-c3cccc([S+](C)[O-])c3)nc2c1 (centres unmarked) [Example 8-1, [2-(3-Methylsulfinyl-phenyl)-3H-imidazo[4,5-b]pyridin-6-yl]-carbamic acid isopropyl ester] | – | 6.30 to 8.00 | 5.05 to 7.00
8 | COCCCNC(=O)c1cccc(-c2nc3cc(NC(=O)OC(C)C)cnc3[nH]2)c1 [Example 11-3, {2-[3-(3-Methoxy-propylcarbamoyl)-phenyl]-3H-imidazo[4,5-b]pyridin-6-yl}-carbamic acid isopropyl ester] | – | 6.30 to 8.00 | 5.05 to 7.00

Next, values leading:

Row | melting point | pIC50 (Src (p60^c-src)) | pIC50 (Lck (p56^lck)) | SMILES
9 | 342 °C (dec.) | – | – | CC(C)OC(=O)Nc1cnc2[nH]c(-c3ccsc3)nc2c1 [Example 2-7, (2-Thiophen-3-yl-3H-imidazo[4,5-b]pyridin-6-yl)-carbamic acid isopropyl ester]
10 | – | 6.30 to 8.00 | 5.05 to 7.00 | COCC(COC)NC(=O)c1cccc(-c2nc3cc(NC(=O)OC(C)C)cnc3[nH]2)c1 [Example 11-2, {2-[3-(2-Methoxy-1-methoxymethyl-ethylcarbamoyl)-phenyl]-3H-imidazo[4,5-b]pyridin-6-yl}-carbamic acid isopropyl ester]
11 | – | 6.30 to 8.00 | 5.05 to 7.00 | CC(C)OC(=O)Nc1cnc2[nH]c(-c3ccc(F)c(F)c3)nc2c1 [Example 10-1, [2-(3,4-Difluoro-phenyl)-3H-imidazo[4,5-b]pyridin-6-yl]-carbamic acid isopropyl ester]
12 | – | 6.30 to 8.00 | 5.05 to 7.00 | CC(C)OC(=O)Nc1cnc2[nH]c(-c3ccccc3)cc2c1 [Example 9-1, (2-Phenyl-1H-pyrrolo[2,3-b]pyridin-5-yl)-carbamic acid isopropyl ester]
13 | – | 6.30 to 8.00 | 5.05 to 7.00 | CC(C)OC(=O)Nc1cnc2[nH]c(-c3cccc(S(C)(=O)=O)c3)nc2c1 [Example 8-2, [2-(3-Methylsulfonyl-phenyl)-3H-imidazo[4,5-b]pyridin-6-yl]-carbamic acid isopropyl ester]
14 | – | 7.41 | 6.10 | CC(=O)Nc1cccc(-c2nc3cc(NC(=O)OC(C)C)cnc3[nH]2)c1 [Example 6-1, [2-(3-Acetylamino-phenyl)-3H-imidazo[4,5-b]pyridin-6-yl]-carbamic acid isopropyl ester]
15 | – | 6.30 to 8.00 | 5.05 to 7.00 | C=C(C)C(C)OC(=O)Nc1cnc2[nH]c(-c3ccccc3)nc2c1 (centres unmarked) [Example 1-22, (2-Phenyl-3H-imidazo[4,5-b]pyridin-6-yl)-carbamic acid 1,2-dimethyl-allyl ester]
16 | – | 6.30 to 8.00 | 5.05 to 7.00 | CC(C)OC(=O)Nc1cnc2[nH]c(-c3cccc(N)c3)nc2c1 [Example 5-1, [2-(3-Amino-phenyl)-3H-imidazo[4,5-b]pyridin-6-yl]-carbamic acid isopropyl ester]
17 | – | 6.30 to 8.00 | 5.05 to 7.00 | CCC(C)OC(=O)Nc1cnc2[nH]c(-c3ccccc3)nc2c1 (centres unmarked) [Example 1-9, (2-Phenyl-3H-imidazo[4,5-b]pyridin-6-yl)-carbamic acid sec-butyl ester]
18 | – | 6.30 to 8.00 | 5.05 to 7.00 | O=C(Nc1cnc2[nH]c(-c3ccccc3)nc2c1)OC1CCC1 [Example 1-17, (2-Phenyl-3H-imidazo[4,5-b]pyridin-6-yl)-carbamic acid cyclobutyl ester]

Reference: patent US7786113B2, “Heterocyclic carbamate derivatives, their manufacture and use as pharmaceutical agents” (Hoffman-La Roche Inc., priority 2004, dated 2010)
